SMILES strings stand for the structures.

The target in the first assay is T1, aromatase (Homo sapiens, UniProt P11511).
T1 sequence (P11511 1-503): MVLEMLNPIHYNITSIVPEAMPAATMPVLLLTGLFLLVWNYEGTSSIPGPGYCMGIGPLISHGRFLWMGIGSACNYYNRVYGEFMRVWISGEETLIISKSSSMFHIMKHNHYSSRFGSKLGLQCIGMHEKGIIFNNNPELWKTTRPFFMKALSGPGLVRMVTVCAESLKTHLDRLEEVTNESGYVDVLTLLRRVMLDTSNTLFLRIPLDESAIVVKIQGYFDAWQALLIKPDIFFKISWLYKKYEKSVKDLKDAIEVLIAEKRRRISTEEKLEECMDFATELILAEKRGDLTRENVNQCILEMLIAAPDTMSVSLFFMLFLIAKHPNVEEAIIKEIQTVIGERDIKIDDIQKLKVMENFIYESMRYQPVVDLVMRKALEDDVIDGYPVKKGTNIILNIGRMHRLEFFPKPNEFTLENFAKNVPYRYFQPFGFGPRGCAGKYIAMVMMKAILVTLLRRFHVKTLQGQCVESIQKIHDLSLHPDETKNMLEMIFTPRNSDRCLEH
Test: not given
Particulars: Aminoglutethimide = 1; cited from earlier work.
As for `N#Cc1ccc(C(c2ccc(C#N)cc2)n2cncn2)cc1` [Letrozole], the “RP, breast cancer homogenates” value was 1800. In the case of `CC(C)(C#N)c1cc(Cn2cncn2)cc(C(C)(C)C#N)c1` [Anasatrozole], the “RP, breast cancer homogenates” value is reported as 450.

In the next assay the target is T1, aromatase.
Test: not given
Particulars: read-out: IC50 from human placental microsomal assay; cited from earlier work.
In the case of `C[C@]12CCC(=O)C(O)=C1CC[C@@H]1[C@@H]2CC[C@]2(C)C(=O)CC[C@@H]12` [Formestane], the IC50 is 0.05 µM.

A further assay has as its target T1, aromatase. Description: Aromatase inhibition assay in human placental microsomes. It counts as biochemical. Also on record: Microsomal protein (1 mg, from human placental tissue); from tissue; host or cells: human placenta, microsomal fraction. Particulars: inhibitor 500 nM; human placental microsomal protein; [1β-3H]androstenedione 15 nM; 15 min at 30° C.
In the case of `Fc1ccc(C2CC(n3ccnc3)c3ccccc3N2)cc1` (stereo not shown) [Compound 6g, 2-(4-Fluorophenyl)-4-imidazol-1-yl-1,2,3,4-tetrahydro-quinoline], testing at 0.5 µM gave an inhibition of 80.5%. The same measure, in the same setting: for `COc1ccc(C2CC(n3ccnc3)c3ccccc3N2)cc1` (stereo not shown) [Compound 6c, 2-(4-Methoxyphenyl)-4-imidazol-1-yl-1,2,3,4-tetrahydro-quinoline] the value was 53.1%; for `Cc1ccc(C2CC(n3cncn3)c3ccccc3N2)cc1` (stereo not shown) [Compound 6i, 2-(p-Tolyl)-4-[1,2,4]triazol-1-yl-1,2,3,4-tetrahydro-quinoline], 13.6%.

For the molecule `O=c1c(Cc2ccncc2)c(-c2ccc(Cl)cc2)[nH]c2c(Br)cc(Br)cc12` [Compound 10k, 6,8-Dibromo-2-(4-Chlorophenyl)-3-((pyridin-4-yl)methyl)quinolin-4(1H)-one], 0.5 µM produced 55.7% inhibition. `Brc1ccc(C2CC(n3cncn3)c3ccccc3N2)cc1` (stereo not shown) [Compound 6l, 2-(4-Bromophenyl)-4-[1,2,4]triazol-1-yl-1,2,3,4-tetrahydro-quinoline] yielded an inhibition at 0.5 µM of 43.9%. For `Clc1ccc(C2CC(n3cncn3)c3ccccc3N2)cc1` (stereo not shown) [Compound 6k, 2-(4-Chlorophenyl)-4-[1,2,4]triazol-1-yl-1,2,3,4-tetrahydro-quinoline], at 0.5 µM the inhibition was 41.9%.

The molecule `c1ccc(C2CC(n3ccnc3)c3ccccc3N2)cc1` (stereo not shown) [Compound 6a, 2-Phenyl-4-imidazol-1-yl-1,2,3,4-tetrahydro-quinoline] came in with an inhibition at 0.5 µM of 61.8%. Consider `N#Cc1ccc(C2CC(n3cncn3)c3ccccc3N2)cc1` (stereo not shown) [Compound 6m, 4-(4-[1,2,4]Triazol-1-yl-1,2,3,4-tetrahydro-quinolin-2-yl)-benzonitrile], for which 0.5 µM produced 36.1% inhibition.

Consider `Clc1ccc(C2CC(n3ccnc3)c3ccccc3N2)cc1` (stereo not shown) [Compound 6d, 2-(4-Chlorophenyl)-4-imidazol-1-yl-1,2,3,4-tetrahydro-quinoline], for which the inhibition at 0.5 µM is 87.4%. As to `O=c1c(Cc2ccncc2)c(-c2ccccc2)[nH]c2ccccc12` [Compound 10a, 2-Phenyl-3-((pyridin-4-yl)methyl)quinolin-4(1H)-one], testing at 0.5 µM gave an inhibition of 7.2%.

Consider `Cc1ccc(-c2[nH]c3ccccc3c(=O)c2Cc2ccncc2)cc1` [Compound 10b, 2-(p-Tolyl)-3-((pyridin-4-yl)methyl)quinolin-4(1H)-one], for which 0.5 µM produced 3.1% inhibition.

The molecule `Cc1ccc(C2CC(n3ccnc3)c3ccccc3N2)cc1` (stereo not shown) [Compound 6b, 2-(p-Tolyl)-4-imidazol-1-yl-1,2,3,4-tetrahydro-quinoline] registered an inhibition at 0.5 µM of 67.4%.

As for `c1ccc(C2CC(n3cncn3)c3ccccc3N2)cc1` (stereo not shown) [Compound 6h, 2-Phenyl-4-[1,2,4]triazol-1-yl-1,2,3,4-tetrahydro-quinoline], the inhibition at 0.5 µM came out at 11.2%. Regarding `COc1ccc(C2CC(n3cncn3)c3ccccc3N2)cc1` (stereo not shown) [Compound 6j, 2-(4-Methoxyphenyl)-4-[1,2,4]triazol-1-yl-1,2,3,4-tetrahydro-quinoline], at 0.5 µM the inhibition was 12.8%.

`COc1ccc(-c2[nH]c3ccccc3c(=O)c2Cc2ccncc2)cc1` [Compound 10c, 2-(4-Methoxyphenyl)-3-((pyridin-4-yl)methyl)quinolin-4(1H)-one]: 0.5 µM produced 0.7% inhibition. Molecule `Fc1ccc(C2CC(n3cncn3)c3ccccc3N2)cc1` (stereo not shown) [Compound 6n, 2-(4-Fluorophenyl)-4-[1,2,4]triazol-1-yl-1,2,3,4-tetrahydro-quinoline] yielded an inhibition at 0.5 µM of 19.5%. In turn, `N#Cc1ccc(-c2[nH]c3ccccc3c(=O)c2Cc2ccncc2)cc1` [Compound 10f] registered an inhibition at 0.5 µM of 1.8%. `N#Cc1ccc(C2CC(n3ccnc3)c3ccccc3N2)cc1` (stereo not shown) [Compound 6f, 4-(4-Imidazol-1-yl-1,2,3,4-tetrahydro-quinolin-2-yl)-benzonitrile] yielded an inhibition at 0.5 µM of 84.3%.

In the case of `O=c1c(Cc2ccncc2)c(-c2ccc(F)cc2)[nH]c2ccccc12` [Compound 10g, 2-(4-Fluorophenyl)-3-((pyridin-4-yl)methyl)quinolin-4(1H)-one], the inhibition at 0.5 µM was 11.8%. The same measure, in the same setting: for `Brc1ccc(C2CC(n3ccnc3)c3ccccc3N2)cc1` (stereo not shown) [Compound 6e, 2-(4-Bromophenyl)-4-imidazol-1-yl-1,2,3,4-tetrahydro-quinoline] the value was 89.7%; for `O=c1c(Cc2ccncc2)c(-c2ccc(Br)cc2)[nH]c2ccccc12` [Compound 10e, 2-(4-Bromophenyl)-3-((pyridin-4-yl)methyl)quinolin-4(1H)-one], 8.2%; for `O=c1c(Cc2ccncc2)c(-c2ccccc2)[nH]c2c(Br)cc(Br)cc12` [Compound 10h, 6,8-Dibromo-2-phenyl-3-((pyridin-4-yl)methyl)quinolin-4(1H)-one], 27.3%. As for `O=c1c(Cc2ccncc2)c(-c2ccc(Cl)cc2)[nH]c2ccccc12` [Compound 10d, 2-(4-Chlorophenyl)-3-((pyridin-4-yl)methyl)quinolin-4(1H)-one], 0.5 µM produced 13.7% inhibition.

Consider `Cc1ccc(-c2[nH]c3c(Br)cc(Br)cc3c(=O)c2Cc2ccncc2)cc1` [Compound 10i, 6,8-Dibromo-2-(p-tolyl)-3-((pyridin-4-yl)methyl)quinolin-4(1H)-one], for which the inhibition at 0.5 µM stood at 22.3%.

The molecule `COc1ccc(-c2[nH]c3c(Br)cc(Br)cc3c(=O)c2Cc2ccncc2)cc1` [Compound 10j, 6,8-Dibromo-2-(4-Methoxyphenyl)-3-((pyridin-4-yl)methyl)quinolin-4(1H)-one] yielded an inhibition at 0.5 µM of 40.5%.

The next assay deals with T1, aromatase.
Test: not given
Particulars: mammary fibroblast cultures; Aminoglutethimide = 1; cited from earlier work.
As for `N#Cc1ccc(C(c2ccc(C#N)cc2)n2cncn2)cc1` [Letrozole], the “RP, mammary fibroblast cultures” value was 10,000. Consider `CC(C)(C#N)c1cc(Cn2cncn2)cc(C(C)(C)C#N)c1` [Anasatrozole], for which the “RP, mammary fibroblast cultures” value is listed as 570.

The same assay, now with this note: read-out: IC50, mammary fibroblast cultures; cited from earlier work.
For the molecule `C[C@]12CCC(=O)C(O)=C1CC[C@@H]1[C@@H]2CC[C@]2(C)C(=O)CC[C@@H]12` [Formestane], the 50% inhibitory concentration (IC50) was 0.045 µM.

For orientation: IC50 means the concentration that gives 50% inhibition. As a reminder, the inhibition is the relative decrease from the control value, in per cent.

Values taken from US20100280070A1, “NOVEL TETRAHYDROQUINOLINES AS AROMATASE INHIBITORS” (priority 2008, published 2010).
